These results are taken from patent US20080249024A1, “Peptides facilitating or inhibiting a nterograde transport” (priority 2006, published 2008).

Where “and” joins values, the source holds several entries; their conditions need not be identical. Identical values can stand only once. Like-named read-outs stand apart in the source and are kept apart here.

Experiment [1] addresses axoplasmic motors (squid giant axon). The experiment in a line: cell-based or functional assay.
The test system of the next experiment is giant axon of the squid. As to the kind of experiment: Transport of peptide- or protein-conjugated fluorescent beads injected into the squid giant axon, confocal time-lapse. The class given is cell-based, squid (Loligo pealei). To be noted: for Max. Velocity / Ave. Velocity (instantaneous): beads conjugated to peptide/protein; for Ave. Velocity (instantaneous): number of moves in brackets; for transport behaviour of conjugated beads in the axon (in words): co-injected with other beads into the same axon; for beads leaving the injection site per minute: 10^6 beads injected. How it is done: The giant axon was obtained from squid (Loligo pealei) at the Marine Biological Laboratory, Woods Hole, Mass. (46). Red and green beads, each conjugated to a different peptide (1.5 nl at […]), were loaded into a mercury micropipette either as a mixture or in equal volumes separated by oil (Bearer, E. L., et al., (2000) Proc Natl Acad Sci USA 97, 8146-50; Terasaki, M., S. et al., (1995) Proc Natl Acad Sci U S A 92, 11500-3; Jaffe, L. A. & Terasaki, M. (2004) Methods Cell Biol 74, 219-42, FIG. S1). For each pair of beads the order of injection was alternated such that each color would have an opportunity to recruit motors first.
Carboxylated microspheres (beads, 0.1 μm diameter) with red (580/605 nm) and green (505/515 nm) fluorescence (Invitrogen) were washed through a Low Binding Durapore filter (100 nm cut-off, Millipore). Uncoated beads were diluted in motility buffer (Brady, S. et al., (1982) Science 218, 1129-31) and injected without further treatment.
Custom synthesized peptides (Aves Labs, Inc) were cross-linked to beads via their amino terminus to allow presentation of the carboxy end of the peptide to the cytoplasm, mimicking the physiological orientation of APP. APP constructs (C99 and APP-680) were generated by PCR from human APP-YFP in pShuttleCMV (E.-M. Mandelkow and Jacek Biernat, Max Planck Institute, Hamburg, Germany (Stamer, K., V. et al., (2002) J Cell Biol 156, 1051-63)). APP-YFP is actively transported in neurons (Stamer et al., supra). For C99, the YFP moiety was replaced with mRFP (Campbell, R. E., et al., (2002) Proc Natl Acad Sci USA 99, 7877-82.) and for APP-680 with GFP. Each construct was cross-linked to a bead of similar spectrum as the fluorescent protein, and conjugated beads individually checked for monochromic emission by confocal. […] Accuracy of all sequences was confirmed by sequencing. Recombinant protein was generated in PC12 cells and purified by anti-fluorescent protein affinity columns (Vector Labs). Protein concentrations were determined by Bio-Rad protein assay, and composition and purity determined by SDS-PAGE.
Peptides or recombinant proteins (20 μl of a 2 mg/ml stock) were mixed in 300 μl of 50 mM MES buffer with 10 μl of 2% beads for 15 min. Cross-linker (1-(3-dimethylaminopropyl)-3-ethylcarbodiimide hydrochloride; EDAC, Molecular Probes) was added to a concentration of 10 μg/ml and the solution adjusted to pH 6.5 with 1M NaOH. After 5 hr the reaction was quenched by adding 2M glycine for a final of 0.1M. Conjugation was confirmed by analyzing peptide concentrations before and after by protein assay. Protein:bead ratio was adjusted that equivalent molar amounts of each protein would be conjugated to the beads. Efficiency of conjugation was relatively similar for all peptides. Binding sites on the beads (10^6) were saturated by using 300-1000 fold excess peptide. For C99 and APP-680, protein concentration was adjusted so that 3,000 copies per bead were conjugated to the surface and unoccupied sites blocked with glycine.
Detection parameters were set to ensure that each color was uniquely detected in its appropriate channel by imaging beads on coverslips with the Zeiss LSM 510 Laser Scanning Confocal Microscope. Fluorescent bead movements in the axon were collected with 10× Plan Neofluor 0.3NA air, and 40× Achroplan 0.8NA water correctible objectives. Green and red fluorescence and phase images were collected simultaneously using Zeiss LSM510 multi-tracking.
Rates and trajectories of APP-C beads were measured by stepping through the frames in either the Zeiss LSM browser or NIH ImageJ (http://rsb.info.nih.gov/nih-image/). Only particles moving into and out of a frame were included. Rates of moving particles were statistically analyzed and graphed using Microsoft Excel.

For another experiment, the system named is giant axon. The experiment in a line: Comparison of velocity of JIP and APP peptide beads and carboxylated negative charge beads in the giant axon (Metamorph). The class given is cell-based, squid. The method, then: (§1) JIP peptide was conjugated to 100 nm fluorescent nanospheres (beads) following the protocol described in Example 1. Washed conjugated beads were injected into a freshly dissected giant squid axon and transport imaged by confocal microscopy.
Movements of beads conjugated to APP-C, JIP, or unconjugated (negative charge) after injection in the axon were measured using Metamorph imaging software (Molecular Devices). Average velocity of JIP beads was 20% faster than APP or negative charge. As is known, negative charge beads are transported in the axon but less frequently than peptide-conjugated beads.
The different surfaces of the beads influence the average rate of movements. In this experiment, movements between frames were measured only when beads moved into and out of the frame.

A further experiment concerns the target T1, kinesin 3 (Kif1a) (Rattus norvegicus, UniProt F1M4A4).
T1 construct: tissue Pelco; host or cells: rat brain cortex extract
As to the kind of experiment: Peptide-bead pull-down from rat brain extract, Western blot for kinesin 3. The format is binding. Conditions: Western blot of beads and supernatants. How it is done:
(§2) Rat brain extract was prepared from frozen rat brain (Pelco). Rat brain was cut from a frozen block of cortex, weighed, and solubilized in 1% Triton and buffer with sonication (3 times 1 sec bursts with a Branson sonicator set at microtip 4). After clarifying centrifugation at 15,000×g for 15 min, 10 μl of extract in pulldown buffer (Lazarov et al. 2005, supra) was layered over carboxylated beads conjugated to various peptides according to the manufacturer's instructions (Dynal).
(In general: Immunoblotting shows a protein as a band on a membrane.)

A further experiment has as its system giant squid axon. As to the kind of experiment: JIP peptide-coated bead transport in giant squid axon, confocal microscopy. The format is cell-based. Conditions: injection site imaged at 0 and 55 min. The method, then:
as §1

A further experiment concerns kinesin 1 heavy chain. The experiment in a line: Peptide-bead pull-down from rat brain extract, Western blot for kinesin 1. The format is binding. Conditions: Western blot of beads and supernatants. How it is done:
as §2

Experiment [2] concerns the target axoplasmic motors (squid giant axon). The experiment in a line: cell-based or functional assay. The source holds these as a separate data set.

T1 sequence (F1M4A4 whole entry): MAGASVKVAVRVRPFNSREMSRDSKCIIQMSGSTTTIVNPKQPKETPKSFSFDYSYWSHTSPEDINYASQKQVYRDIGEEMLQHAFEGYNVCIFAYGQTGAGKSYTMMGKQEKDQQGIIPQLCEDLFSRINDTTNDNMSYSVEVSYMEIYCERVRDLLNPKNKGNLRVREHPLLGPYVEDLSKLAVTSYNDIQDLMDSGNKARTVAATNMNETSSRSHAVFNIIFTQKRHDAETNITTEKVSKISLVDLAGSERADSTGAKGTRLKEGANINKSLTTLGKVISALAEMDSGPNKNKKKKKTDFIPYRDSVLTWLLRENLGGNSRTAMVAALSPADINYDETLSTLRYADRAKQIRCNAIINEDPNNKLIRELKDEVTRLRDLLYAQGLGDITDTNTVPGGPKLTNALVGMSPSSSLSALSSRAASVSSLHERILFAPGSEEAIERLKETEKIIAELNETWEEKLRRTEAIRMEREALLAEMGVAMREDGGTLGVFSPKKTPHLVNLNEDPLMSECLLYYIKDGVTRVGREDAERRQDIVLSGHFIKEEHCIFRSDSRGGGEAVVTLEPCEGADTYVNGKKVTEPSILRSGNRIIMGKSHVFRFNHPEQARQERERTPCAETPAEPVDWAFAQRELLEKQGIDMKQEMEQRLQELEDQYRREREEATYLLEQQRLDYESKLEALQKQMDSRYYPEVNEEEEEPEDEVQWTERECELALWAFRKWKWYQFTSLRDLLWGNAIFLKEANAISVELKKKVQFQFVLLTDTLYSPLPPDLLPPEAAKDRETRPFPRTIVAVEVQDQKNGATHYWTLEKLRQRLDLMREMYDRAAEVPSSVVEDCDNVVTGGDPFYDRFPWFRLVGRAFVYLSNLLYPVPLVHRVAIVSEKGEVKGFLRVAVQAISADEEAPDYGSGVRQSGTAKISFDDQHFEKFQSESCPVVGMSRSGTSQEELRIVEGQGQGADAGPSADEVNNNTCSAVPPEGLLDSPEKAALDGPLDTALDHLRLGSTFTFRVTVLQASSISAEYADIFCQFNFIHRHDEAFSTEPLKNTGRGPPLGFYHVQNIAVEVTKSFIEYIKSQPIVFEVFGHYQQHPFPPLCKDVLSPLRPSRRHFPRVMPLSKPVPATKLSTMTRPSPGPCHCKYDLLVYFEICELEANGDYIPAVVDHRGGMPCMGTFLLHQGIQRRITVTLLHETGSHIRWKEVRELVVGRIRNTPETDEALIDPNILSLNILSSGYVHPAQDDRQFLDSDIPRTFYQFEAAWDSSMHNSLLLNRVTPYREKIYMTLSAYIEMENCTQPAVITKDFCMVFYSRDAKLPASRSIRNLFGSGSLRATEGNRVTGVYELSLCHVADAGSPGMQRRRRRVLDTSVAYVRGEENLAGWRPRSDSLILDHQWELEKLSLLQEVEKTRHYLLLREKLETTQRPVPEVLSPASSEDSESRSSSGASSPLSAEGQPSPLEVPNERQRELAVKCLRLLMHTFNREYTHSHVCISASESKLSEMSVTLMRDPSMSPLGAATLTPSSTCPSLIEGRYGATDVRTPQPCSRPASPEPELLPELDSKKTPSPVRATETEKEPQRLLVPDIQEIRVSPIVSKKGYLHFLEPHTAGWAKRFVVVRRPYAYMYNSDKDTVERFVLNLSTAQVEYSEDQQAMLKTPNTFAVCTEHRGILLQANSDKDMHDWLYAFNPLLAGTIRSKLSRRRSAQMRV

In experiment [1], “C99, a polypeptide containing the C-terminal 99 amino acids of human APP (with mRFP in place of YFP) (from UniProt P05067 597-695)” gave a percent of beads that move (squid giant axon, no peptide) of 39.5% and a percent of beads that move after pre-injection of soluble APP-C peptide of 10.3%.

“C99: recombinant C-terminal 99 amino acids of human APP with mRFP, full cytoplasmic domain; 3,000 copies per 100 nm bead”: the “percent of beads that move, with peptide” value in the experiment with giant axon of the squid (axon pre-injected with soluble APP-C peptide, average of 3 100-frame videos) was found to be 10.3%+/−4.4. Besides, in the experiment with giant axon of the squid, the “Max. Velocity” value was 1.46 μm/s; the “Ave. Velocity (instantaneous)” value was 0.66+/−0.08 μm/s and 0.66 +/− 0.08 (194) μm/s; the “transport behaviour of conjugated beads in the axon (in words)” value is on record as “both types of beads were transported”. Besides, the “percent of beads that move” value with giant axon of the squid (without peptide, moving = translocated >3 consecutive frames, average of 3 100-frame videos, within 500 μm of injection site) was found to be 39.5%+/−4.5.

Take “FVE YTC PTE DIY LE (FVEYTCPTEDIYLE) [JIP-1]”: in the experiment with giant axon, the “average velocity faster than APP or negative charge beads” value was 20% and the “speed relative to negative charge beads (in words)” value is on record as “almost twice as fast”. Also, in the experiment on giant axon (beads in the giant axon), the Max velocity was found to be 0.96 μm/sec. Also, in the experiment on giant axon (instantaneous velocity of beads in the axon, only beads moving into and out of the frame), the Ave velocity is listed as 0.5 +/− 0.01 μm/sec. In addition, the “pull-down of kinesin 3 (Kif1a) from brain extract” value with kinesin 3 (Kif1a) was “preferentially pulls down kinesin 3 (Kif1a)”. Moreover, the “transport of JIP beads in the axon (in words)” value in the experiment on giant squid axon was “a stream of beads can be seen heading towards the synapse”.

Turning to “GEPYFEMNYNTKFQQ (listed as Homo sapiens) [APP-C^j, reference compound]”, in the experiment with giant axon of the squid, the “beads leaving the injection site per minute” value is recorded as “None”.

With “GYENPTYKFFEQMQN (listed as Homo sapiens) [APP-C, tested conjugated to beads or as soluble peptide]”, in the experiment on giant axon of the squid, the “Max. Velocity” value amounted to 0.9 μm/s and the “Ave. Velocity (instantaneous)” value is reported as 0.41 +/− 0.07 (227) μm/s. The “pull-down of kinesin 1 heavy chain from brain extract” value in the experiment on kinesin 1 heavy chain is “preferentially bind to kinesin 1 heavy chain”.

In the case of “GYENPTYKYFE-MQN (GYENPTYKYFEMQN; listed as Loligo pealei) [APP-C (squid)]”, in the experiment with giant axon of the squid, the “Max. Velocity” value stood at 0.9 μm/s and the “Ave. Velocity (instantaneous)” value was 0.53 +/− 0.09 (54) μm/s.

In the case of “HMNCQNGKWDSDPSGTKTCI (listed as Homo sapiens) [APP-N, reference compound]”, in the experiment with giant axon of the squid, the “beads leaving the injection site per minute” value is ~0.001 ×10^3 per minute and the “transport behaviour of conjugated beads in the axon (in words)” value is listed as “remained stationary at the injection site”.

With GYENPTYKFFEQMQN, in experiment [2], the percent of beads that move (squid giant axon, no peptide) stood at 36% and the percent of beads that move after pre-injection of soluble APP-C peptide was determined as 0%.
